Data published in ChEMBL document CHEMBL3751805, “Novel Tacrine-Benzofuran Hybrids as Potent Multitarget-Directed Ligands for the Treatment of Alzheimer's Disease: Design, Synthesis, Biological Evaluation, and X-ray Crystallography” (J Med Chem, 2016).
Calls of active or inactive are those of the source. The calls are words filed in the database; no cut-off is given here.

Assays:
Cholinesterase = Cholinesterase (Homo sapiens, UniProt P06276)
Description: Inhibition of human serum BChE using butyrylthiocholine iodide as substrate preincubated for 20 mins followed by substrate addition by Ellman's method

[1] = target: T1, Amyloid-beta precursor protein (Homo sapiens, UniProt P05067); details: at 10 µM
T1 sequence (P05067 whole entry): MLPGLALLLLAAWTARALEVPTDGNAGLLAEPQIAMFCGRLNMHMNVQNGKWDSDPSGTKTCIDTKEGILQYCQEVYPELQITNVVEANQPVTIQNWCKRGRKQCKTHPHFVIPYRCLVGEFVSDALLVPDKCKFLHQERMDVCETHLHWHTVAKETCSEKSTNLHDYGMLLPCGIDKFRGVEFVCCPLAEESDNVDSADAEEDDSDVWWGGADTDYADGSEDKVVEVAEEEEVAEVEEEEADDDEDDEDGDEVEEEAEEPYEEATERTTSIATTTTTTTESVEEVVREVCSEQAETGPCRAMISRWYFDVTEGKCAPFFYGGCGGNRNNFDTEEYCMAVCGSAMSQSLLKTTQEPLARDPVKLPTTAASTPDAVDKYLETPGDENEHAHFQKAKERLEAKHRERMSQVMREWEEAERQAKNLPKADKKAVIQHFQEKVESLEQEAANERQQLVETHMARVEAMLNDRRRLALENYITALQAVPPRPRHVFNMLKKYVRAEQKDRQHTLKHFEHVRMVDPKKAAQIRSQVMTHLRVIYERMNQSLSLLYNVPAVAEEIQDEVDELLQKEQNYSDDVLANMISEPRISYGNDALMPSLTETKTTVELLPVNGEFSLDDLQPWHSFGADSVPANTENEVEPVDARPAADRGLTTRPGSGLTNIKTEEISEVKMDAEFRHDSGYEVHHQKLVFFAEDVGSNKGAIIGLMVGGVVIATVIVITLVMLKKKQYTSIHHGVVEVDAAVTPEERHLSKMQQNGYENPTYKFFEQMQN
Description: Inhibition of HFIP pretreated Amyloid beta (1 to 42) (unknown origin) self-induced aggregation at 10 uM incubated for 24 hrs by Thioflavin T-based fluorometric assay

Acetylcholinesterase [2] = target: T2, Acetylcholinesterase (Homo sapiens, UniProt P22303)
T2 sequence (P22303 whole entry): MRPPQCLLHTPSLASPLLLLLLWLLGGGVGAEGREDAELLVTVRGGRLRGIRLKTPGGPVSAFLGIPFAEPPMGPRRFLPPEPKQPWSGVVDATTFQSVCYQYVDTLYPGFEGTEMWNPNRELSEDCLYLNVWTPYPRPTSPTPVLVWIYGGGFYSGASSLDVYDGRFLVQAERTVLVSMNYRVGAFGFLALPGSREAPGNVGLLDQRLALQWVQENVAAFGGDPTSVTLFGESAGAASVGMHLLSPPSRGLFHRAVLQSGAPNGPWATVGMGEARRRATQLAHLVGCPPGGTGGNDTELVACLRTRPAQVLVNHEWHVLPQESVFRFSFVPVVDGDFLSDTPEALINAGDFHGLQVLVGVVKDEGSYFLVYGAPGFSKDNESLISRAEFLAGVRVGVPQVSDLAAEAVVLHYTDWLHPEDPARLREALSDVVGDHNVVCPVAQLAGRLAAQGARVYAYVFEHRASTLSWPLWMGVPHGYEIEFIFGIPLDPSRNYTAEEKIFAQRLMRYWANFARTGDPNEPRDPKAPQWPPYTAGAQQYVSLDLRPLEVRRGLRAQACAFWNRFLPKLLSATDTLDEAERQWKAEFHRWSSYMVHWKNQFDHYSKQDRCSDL
Description: Inhibition of recombinant human AChE using acetylthiocholine iodide as substrate preincubated for 20 mins followed by substrate addition by Ellman's method

Beta-secretase 1 [3] = target: T3, Beta-secretase 1 (Homo sapiens, UniProt P56817); assay: Inhibition of BACE-1 (unknown origin) using M-2420 as substrate preincubated for 1 hr followed by substrate addition measured after 15 mins by FRET assay
T3 sequence (P56817 whole entry): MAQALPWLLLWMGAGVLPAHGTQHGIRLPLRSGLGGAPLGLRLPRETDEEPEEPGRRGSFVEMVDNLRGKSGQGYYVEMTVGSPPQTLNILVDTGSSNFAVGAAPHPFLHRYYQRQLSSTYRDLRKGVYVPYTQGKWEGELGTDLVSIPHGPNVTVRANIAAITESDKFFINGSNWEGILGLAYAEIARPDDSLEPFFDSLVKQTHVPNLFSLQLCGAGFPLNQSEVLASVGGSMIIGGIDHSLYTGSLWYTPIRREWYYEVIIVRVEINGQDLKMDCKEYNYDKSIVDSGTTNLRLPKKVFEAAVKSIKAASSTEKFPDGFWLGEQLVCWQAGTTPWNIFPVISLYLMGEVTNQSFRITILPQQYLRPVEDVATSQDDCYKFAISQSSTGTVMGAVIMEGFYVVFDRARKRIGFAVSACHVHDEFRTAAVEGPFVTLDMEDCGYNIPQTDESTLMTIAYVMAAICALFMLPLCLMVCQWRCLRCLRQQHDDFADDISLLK

SH-SY5Y = assay: Cytotoxicity against human SH-SY5Y cells assessed as reduction in cell viability at 3 to 30 uM after 48 hrs by MTT assay; type: cell-based
Beta-secretase 1 [4] = target: T3, Beta-secretase 1
Description: Inhibition of recombinant human BACE-1 using M-2420 as substrate preincubated for 1 hr followed by substrate addition measured after 15 mins by FRET assay

Acetylcholinesterase [5] = target: T2, Acetylcholinesterase; assay: Mixed-type inhibition of recombinant human AChE using acetylthiocholine iodide as substrate assessed as enzyme-substrate-inhibitor complex by Lineweaver-Burk double reciprocal plot method
Acetylcholinesterase [6] = target: T4, Acetylcholinesterase (Torpedo californica, UniProt P04058); assay: Competitive inhibition of Torpedo californica AChE using ATCh as substrate preincubated for 90 mins followed by substrate addition by potentiometric titration method; parameters: species or system Tetronarce californica
T4 sequence (P04058 whole entry): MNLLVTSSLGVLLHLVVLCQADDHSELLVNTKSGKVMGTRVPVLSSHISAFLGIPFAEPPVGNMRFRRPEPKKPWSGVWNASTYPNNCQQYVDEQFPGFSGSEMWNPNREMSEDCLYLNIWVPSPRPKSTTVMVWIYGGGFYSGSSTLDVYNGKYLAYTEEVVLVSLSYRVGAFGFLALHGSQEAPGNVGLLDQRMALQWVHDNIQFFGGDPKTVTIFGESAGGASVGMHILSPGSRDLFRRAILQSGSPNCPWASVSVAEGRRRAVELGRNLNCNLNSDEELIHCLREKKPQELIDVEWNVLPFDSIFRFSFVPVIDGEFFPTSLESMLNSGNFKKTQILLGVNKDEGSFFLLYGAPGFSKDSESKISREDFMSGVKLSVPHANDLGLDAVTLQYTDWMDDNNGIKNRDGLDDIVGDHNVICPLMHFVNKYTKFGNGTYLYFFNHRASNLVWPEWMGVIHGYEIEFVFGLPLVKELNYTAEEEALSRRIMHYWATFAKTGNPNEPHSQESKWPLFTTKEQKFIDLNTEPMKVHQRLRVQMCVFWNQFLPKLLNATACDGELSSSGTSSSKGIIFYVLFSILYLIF

Mus musculus [7] = type: toxicity, organism-based, ICR; details: in vivo, po, 30 mg/kg, 8 h
in vitro = details: human, SH-SY5Y cells
Description: Cytotoxicity against human SH-SY5Y cells assessed as cell viability at 30 uM after 48 hrs by MTT assay

Mus musculus [8] = assay: Hepatotoxicity in ICR mouse assessed as serum aspartate aminotransferase level dosed ig at equimolar dose of 30 mg/kg tacrine after 8 hrs by spectrophotometry analysis (reference value: 113.3 +/- 30 U/L); type: toxicity, organism-based; details: in vivo, po
Acetylcholinesterase [9] = target: T4, Acetylcholinesterase; assay: Noncompetitive inhibition of Torpedo californica AChE using ATCh as substrate assessed as dissociation rate constant preincubated for 90 mins followed by substrate addition by potentiometric titration method; parameters: species or system Tetronarce californica
[10] = target: Acetylcholinesterase (Torpedo californica) (UniProt P04058); details: Tetronarce californica
Acetylcholinesterase (Torpedo californica), sequence (P04058 22-564 limits assumed): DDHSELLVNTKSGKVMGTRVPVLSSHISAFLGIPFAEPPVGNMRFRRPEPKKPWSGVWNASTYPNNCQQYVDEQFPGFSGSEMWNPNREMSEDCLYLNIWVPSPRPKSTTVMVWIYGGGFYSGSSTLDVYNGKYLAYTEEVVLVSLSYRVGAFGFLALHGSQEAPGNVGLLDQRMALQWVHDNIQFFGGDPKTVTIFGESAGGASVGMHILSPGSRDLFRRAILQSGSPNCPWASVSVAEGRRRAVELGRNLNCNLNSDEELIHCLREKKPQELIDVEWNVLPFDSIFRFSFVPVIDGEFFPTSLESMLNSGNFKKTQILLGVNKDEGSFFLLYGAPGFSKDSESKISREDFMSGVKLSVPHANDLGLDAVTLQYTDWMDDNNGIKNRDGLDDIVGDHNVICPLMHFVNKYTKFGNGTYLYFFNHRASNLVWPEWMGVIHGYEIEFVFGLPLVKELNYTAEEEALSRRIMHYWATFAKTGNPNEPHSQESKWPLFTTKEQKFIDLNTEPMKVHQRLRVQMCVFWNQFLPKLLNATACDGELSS
Description: Competitive inhibition of Torpedo californica AChE using ATCh as substrate assessed as second order association constant preincubated for 90 mins followed by substrate addition by potentiometric titration method

[11] = target: Acetylcholinesterase (Torpedo californica) (UniProt P04058); details: Tetronarce californica; 1 to 10 nM
[12] = target: Acetylcholinesterase (Torpedo californica) (UniProt P04058); details: Tetronarce californica; remark: listed apart in the source
Description: Noncompetitive inhibition of Torpedo californica AChE using ATCh as substrate assessed as second order association constant preincubated for 90 mins followed by substrate addition by potentiometric titration method

Acetylcholinesterase [13] = target: T4, Acetylcholinesterase; assay: Competitive inhibition of Torpedo californica AChE using ATCh as substrate assessed as dissociation rate constant preincubated for 90 mins followed by substrate addition by potentiometric titration method; parameters: species or system Tetronarce californica
[14] = target: Acetylcholinesterase (Torpedo californica) (UniProt P04058); details: Tetronarce californica; 0.3 nM
Mus musculus [15] = assay: Hepatotoxicity in ICR mouse assessed as serum alanine aminotransferase level dosed ig at equimolar dose of 30 mg/kg tacrine after 36 hrs by spectrophotometry analysis (reference value: 38.1 +/- 8.2 U/L); type: toxicity, organism-based; details: in vivo, po
Mus musculus [16] = assay: Hepatotoxicity in ICR mouse assessed as elevation in serum aspartate aminotransferase level dosed ig at equimolar dose of 30 mg/kg tacrine after 8 hrs by spectrophotometry analysis relative to control; type: toxicity, organism-based; details: in vivo, po
Mus musculus [17] = type: toxicity, organism-based, ICR; details: in vivo, po, 30 mg/kg, 36 h
Acetylcholinesterase [18] = target: T2, Acetylcholinesterase; assay: Mixed-type inhibition of recombinant human AChE using acetylthiocholine iodide as substrate assessed as enzyme-inhibitor complex by Lineweaver-Burk double reciprocal plot method
Mus musculus [19] = assay: Hepatotoxicity in ICR mouse assessed as elevation in serum alanine aminotransferase level dosed ig at equimolar dose of 30 mg/kg tacrine after 8 hrs by spectrophotometry analysis relative to control; type: toxicity, organism-based; details: in vivo, po
Mus musculus [20] = assay: Hepatotoxicity in ICR mouse assessed as serum alanine aminotransferase level dosed ig at equimolar dose of 30 mg/kg tacrine after 22 hrs by spectrophotometry analysis (reference value: 40.1 +/- 9.9 U/L); type: toxicity, organism-based; details: in vivo, po
Acetylcholinesterase [21] = target: T4, Acetylcholinesterase; assay: Noncompetitive inhibition of Torpedo californica AChE using ATCh as substrate preincubated for 90 mins followed by substrate addition by potentiometric titration method; parameters: species or system Tetronarce californica
Mus musculus [22] = assay: Hepatotoxicity in ICR mouse assessed as serum aspartate aminotransferase level dosed ig at equimolar dose of 30 mg/kg tacrine after 22 hrs by spectrophotometry analysis (reference value: […] +/- 31.1 U/L); type: toxicity, organism-based; details: in vivo, po
[23] = target: T1, Amyloid-beta precursor protein; assay: Inhibition of Amyloid beta (1 to 42) (unknown origin) self-induced aggregation incubated for 24 hrs by Thioflavin T-based fluorometric assay

Cholinesterase, sequence (P06276 whole entry): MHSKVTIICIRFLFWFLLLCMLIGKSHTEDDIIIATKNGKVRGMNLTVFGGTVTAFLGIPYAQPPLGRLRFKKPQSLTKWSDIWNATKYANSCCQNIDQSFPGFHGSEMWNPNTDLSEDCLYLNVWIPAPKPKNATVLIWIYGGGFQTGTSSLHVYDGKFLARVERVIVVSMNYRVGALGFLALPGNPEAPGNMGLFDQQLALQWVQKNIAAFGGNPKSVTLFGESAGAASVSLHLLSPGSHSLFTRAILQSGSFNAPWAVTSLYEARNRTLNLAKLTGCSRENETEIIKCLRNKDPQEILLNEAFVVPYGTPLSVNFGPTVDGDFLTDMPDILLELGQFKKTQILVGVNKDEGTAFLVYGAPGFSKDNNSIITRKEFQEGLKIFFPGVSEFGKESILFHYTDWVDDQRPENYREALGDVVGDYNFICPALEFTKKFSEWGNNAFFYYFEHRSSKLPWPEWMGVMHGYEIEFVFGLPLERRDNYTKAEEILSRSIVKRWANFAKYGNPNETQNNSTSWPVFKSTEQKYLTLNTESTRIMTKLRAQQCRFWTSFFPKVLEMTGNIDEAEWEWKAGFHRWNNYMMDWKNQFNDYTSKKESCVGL

| Structure (SMILES) | IC50 (Cholinesterase) | inhibition [1] | IC50 (Acetylcholinesterase [2]) | also measured |
| --- | --- | --- | --- | --- |
| O=C(NCCCCCCCNc1c2c(nc3ccccc13)CCCCC2)c1cc2ccccc2o1 | 0.0116 µM | 17.3% | 0.323 µM |  |
| O=C(NCCCCCCNc1c2c(nc3ccccc13)CCC2)c1cc2ccccc2o1 | 0.0157 µM | 18.7% | 0.545 µM |  |
| c1ccc2oc(CNCCCCCCCNc3c4c(nc5ccccc35)CCC4)cc2c1 | 0.00254 µM | 76.2% | 0.0108 µM |  |
| O=C(NCCCCCCNc1c2c(nc3ccccc13)CCCCC2)c1cc2ccccc2o1 | 0.0108 µM | 24.2% | 0.308 µM |  |
| COc1cccc2cc(CNCCCCCCNc3c4c(nc5ccccc35)CCCC4)oc12 | 0.00049 µM | 52% | 0.0153 µM |  |
| COc1cccc2cc(CN(CCCCCCNc3c4c(nc5ccccc35)CCC4)Cc3cc4cccc(OC)c4o3)oc12 | 0.0023 µM | 38.5% | 7.49 µM |  |
| c1ccc2oc(CN(CCCCCCCNc3c4c(nc5ccccc35)CCC4)Cc3cc4ccccc4o3)cc2c1 | 0.0128 µM | 30.7% | 0.222 µM |  |
| c1ccc2oc(CN(CCCCCCCNc3c4c(nc5ccccc35)CCCCC4)Cc3cc4ccccc4o3)cc2c1 | 0.0179 µM | 39.8% | 0.2 µM |  |
| COc1cccc2cc(CN(CCCCCCNc3c4c(nc5ccccc35)CCCCC4)Cc3cc4cccc(OC)c4o3)oc12 | 0.00235 µM | 25% | 1.04 µM |  |
| COc1cccc2cc(C(=O)NCCCCCCNc3c4c(nc5ccccc35)CCCCC4)oc12 | 0.03 µM | 18.7% | 0.0323 µM |  |
| COc1cccc2cc(C(=O)NCCCCCCCNc3c4c(nc5ccccc35)CCCCC4)oc12 | 0.0319 µM | 17.7% | 0.416 µM |  |
| NC1=NC(c2ccc(F)cc2)NC(=O)N1 (stereo unspecified) |  |  |  | IC50 (Beta-secretase 1 [3]): 18 µM |
| COc1cccc2cc(C(=O)NCCCCCCNc3c4c(nc5ccccc35)CCCC4)oc12 | 0.0102 µM | 40.2% | 0.0244 µM |  |
| O=C(NCCCCCCCNc1c2c(nc3ccccc13)CCCC2)c1cc2ccccc2o1 | 0.0069 µM | 26.2% | 0.0769 µM | Activity (SH-SY5Y): Toxic |
| COc1cccc2cc(CNCCCCCCNc3c4c(nc5ccccc35)CCC4)oc12 | 0.0013 µM | 64.1% | 0.0631 µM |  |
| COc1cccc2cc(C(=O)NCCCCCCCNc3c4c(nc5ccccc35)CCCC4)oc12 | 0.00735 µM | 42.5% | 0.0442 µM | IC50 (Beta-secretase 1 [4]): 0.43 µM |
| O=C(NCCCCCCNc1c2c(nc3ccccc13)CCCC2)c1cc2ccccc2o1 | 0.00468 µM | 13.7% | 0.424 µM |  |
| c1ccc2oc(CN(CCCCCCCNc3c4c(nc5ccccc35)CCCC4)Cc3cc4ccccc4o3)cc2c1 | 0.00686 µM | 44.5% | 0.117 µM | IC50 (Beta-secretase 1 [4]): 0.62 µM |
| c1ccc2oc(CN(CCCCCCNc3c4c(nc5ccccc35)CCC4)Cc3cc4ccccc4o3)cc2c1 | 0.00889 µM | 62.2% | 2.07 µM |  |
| c1ccc2oc(CNCCCCCCNc3c4c(nc5ccccc35)CCC4)cc2c1 | 0.00248 µM | 9.3% | 0.047 µM |  |
| c1ccc2oc(CNCCCCCCCNc3c4c(nc5ccccc35)CCCC4)cc2c1 | 0.00218 µM | 61.3% | 0.00086 µM | Ki (Acetylcholinesterase [5]): 0.00104 µM; Ki (Acetylcholinesterase [6]): 0.0022 µM; Activity (Mus musculus [7]): 45.1 U/L; viability at 48 h, 30 µM (in vitro): 63%; Activity (Mus musculus [8]): 138.3 U/L; Kd (Acetylcholinesterase [9]): 0.031 s⁻¹; Ka [10]: 1.45 ×10⁷ /M/s; inhibition [11]: Active; Ka [12]: 1.45 ×10⁷ /M/s; Kd (Acetylcholinesterase [13]): 0.032 s⁻¹; inhibition [14]: Active; Activity (Mus musculus [15]): 42 U/L; fold change (FC) (Mus musculus [16]): 1.22; Activity (Mus musculus [17]): 114.7 U/L; IC50 (Beta-secretase 1 [4]): 1.35 µM; Ki (Acetylcholinesterase [18]): 0.00072 µM; fold change (FC) (Mus musculus [19]): 1.16; Activity (Mus musculus [20]): 48.2 U/L; Ki (Acetylcholinesterase [21]): 0.0021 µM; Activity (Mus musculus [22]): 134.5 U/L |
| COc1cccc2cc(C(=O)NCCCCCCCNc3c4c(nc5ccccc35)CCC4)oc12 | 0.0261 µM | 19.6% | 0.993 µM |  |
| c1ccc2c(NCCCCCCCNc3c4c(nc5ccccc35)CCCC4)c3c(nc2c1)CCCC3 |  | 50.1% |  | IC50 [23]: 8.4 µM |
| COc1cccc2cc(C(=O)NCCCCCCNc3c4c(nc5ccccc35)CCC4)oc12 | 0.0806 µM | 32.6% | 1.68 µM |  |
| COc1cccc2cc(CNCCCCCCCNc3c4c(nc5ccccc35)CCCCC4)oc12 | 0.00123 µM | 31.9% | 0.00256 µM |  |
| COc1cccc2cc(CN(CCCCCCNc3c4c(nc5ccccc35)CCCC4)Cc3cc4cccc(OC)c4o3)oc12 | 0.00048 µM | 44.6% | 0.26 µM | Activity (SH-SY5Y): Toxic; IC50 (Beta-secretase 1 [4]): 0.19 µM |
| COc1cccc2cc(CN(CCCCCCCNc3c4c(nc5ccccc35)CCCCC4)Cc3cc4cccc(OC)c4o3)oc12 | 0.00487 µM | 37.3% | 0.199 µM |  |
| O=C(NCCCCCCCNc1c2c(nc3ccccc13)CCC2)c1cc2ccccc2o1 | 0.0309 µM | 10.2% | 0.0486 µM |  |
